Results as given in US4221724A, “Antibiotic X-14766A” (Hoffmann-La Roche Inc., priority 1978, dated 1980).
≈ marks a conversion by molar mass, not a printed value. Where “and” joins values, the source holds several entries; their conditions need not be identical. Equal values may be shown once.

Assays:
[1] = system: Treponema hyodysenteriae strain B140; experiment: activity against Treponema hyodysenteriae, blood agar plate dilution MIC; type: cell-based; conditions: 48 hours, 42° C., anaerobic, in µg/mL
Text: (§1) Testing for activity against Treponema hyodysenteriae, a cause of swine dysentery consisted of inoculation of blood agar plates containing a series of two and fourfold dilutions of antibiotic X-14766A and ipronidazole, an agent used in the treatment of swine dysentery, with tenfold dilutions of each of the T. hyodysenteriae strains (H 78, H 140, H 179).

[2] = system: Treponema hyodysenteriae strain B78; experiment: as above; type: cell-based; conditions: 48 hours, 42° C., anaerobic, in µg/mL
Text: as §1

[3] = system: Treponema hyodysenteriae strain B179; experiment: as above; type: cell-based; conditions: Steers inoculation, 48 hours, 42° C., anaerobic, in µg/mL
Text: as §1

[4] = system: rumen fluid (in vitro rumen fermentations); parameters: species or system bovine; conditions: for Percent Production of Control Fermantations: Rate of Gas Production / Percent Production of Control Fermantations: Total VFA(%): rumen fluid, 240 min
[5] = system: Bacillus megaterium ATCC 8011; experiment: antibacterial activity, Minimum Inhibitory Concentration (Table 4); type: cell-based; conditions: Priestia megaterium, ATCC8011
toxicity (LD50) in mice = conditions: mouse, in vivo
[6] = system: Clostridium histolyticum 503-86; experiment: in vitro activity against anaerobic bacteria, two-fold serial broth dilution (Table 5); type: cell-based; conditions: Hathewaya histolytica, 50386, trypticase soy broth, 37° C. overnight, read-out: Minimum Inhibitory Concentration
Procedure: (§2) *Two-fold serial broth dilution tests were carried out using trypticase
(§3) soy broth (TSB, BBL) as the test medium. All tests were incubated at
(§4) 37° C. overnight under anaerobic conditions.

[7] = system: Clostridium septicum 503-34; experiment: as above; type: cell-based; conditions: 50334, trypticase soy broth, 37° C. overnight, read-out: Minimum Inhibitory Concentration
Procedure: as §2, §3, §4

[8] = system: Streptomyces cellulosae ATCC 3313; experiment: antibacterial activity, Minimum Inhibitory Concentration (Table 4); type: cell-based; conditions: ATCC3313
[9] = system: Mycobacterium phlei ATCC 355; experiment: as above; type: cell-based; conditions: Mycolicibacterium phlei, ATCC355
Sarcina lutea ATCC 9341 = experiment: as above; type: cell-based; conditions: Micrococcus luteus, ATCC9341
[10] = system: Bacteroides fragilis ATCC 12290; experiment: in vitro activity against anaerobic bacteria, two-fold serial broth dilution (Table 5); type: cell-based; conditions: ATCC12290, trypticase soy broth, 37° C. overnight, read-out: Minimum Inhibitory Concentration
[11] = system: Bacillus sp. TA ATCC 27860; experiment: antibacterial activity, Minimum Inhibitory Concentration (Table 4); type: cell-based; conditions: ATCC27860
[12] = system: Bacillus sp. E ATCC 27859; experiment: as above; type: cell-based; conditions: ATCC27859
[13] = system: Staphylococcus aureus ATCC 6538P; experiment: as above; type: cell-based; conditions: ATCC6538P
[14] = system: Bacillus subtilis Nrrl 558; experiment: as above; type: cell-based; conditions: NRRL558
Plasmodium bergei = experiment: antimalarial activity against Plasmodium bergei in mice; type: in vivo

Row | SMILES | MIC ([1]; Steers inoculation) | MIC ([1]; Syringe inoculation) | MIC ([2]; Steers inoculation) | MIC ([2]; Syringe inoculation) | MIC [3] | C3 /C2 + nC4 [4] | Percent Production of Control Fermantations: Rate of Gas Production [4] | Percent Production of Control Fermantations: Total VFA(%) [4] | also measured
1 | CC(C)c1ncc([N+](=O)[O-])n1C [Ipronidazole, ipronidazole, reference compound] | 0.16 and 0.31 | 0.63 | 0.16 and 0.31 | 0.63 | 0.16 and 0.31 |  |  |  | 
2 | CC[C@@]1([C@@H]2O[C@@H]([C@H]3O[C@@](O)(CO)[C@H](C)C[C@@H]3C)C[C@@H]2C)CC[C@H]([C@]2(C)CC[C@]3(C[C@H](O)[C@@H](C)[C@@H]([C@@H](C)[C@@H](OC)[C@H](C)C(=O)O)O3)O2)O1 [Monensin] |  |  |  |  |  | 0.565 and 0.575 | 89% and 85% | 105.3% and 110.7% | 
3 | CCC(C(=O)O)C1CCC(C)C(C(C)C(O)C(C)C(=O)C(CC)C2OC3(C=CC(O)C4(CCC(C)(C5CCC(O)(CC)C(C)O5)O4)O3)C(C)CC2C)O1 (centres unmarked) [Salino] |  |  |  |  |  | 0.497 and 0.512 | 83% and 90% | 146.9% and 145.5% | 
4 | CCOC(=O)C1OC(C2(C)OC3(OC4(C=CC3O)OC(C(C)C(=O)C(C)C(O)C(C)CC(C)c3c(Cl)cc(C)c(O)c3C(=O)O)C(C)CC4C)C(C)C2OC)CC1O (centres unmarked) [Antibiotic X-14766A] | < 0.04 and 0.04 | 0.02 and 0.04 | < 0.04 and 0.02 | 0.02 and 0.04 | < 0.04 and 0.02 | 0.501 and 0.488 | 90% and 89% | 150.1% and 138.7% | MIC [5]: 0.08 µg/mL (≈ 0.0953 µM); LD50 (toxicity (LD50) in mice; ip): 5.75 mg/kg; LD50 (toxicity (LD50) in mice; po): 350 mg/kg; MIC [6]: 0.0098 µg/mL (≈ 0.0117 µM); MIC [7]: 0.0098 µg/mL (≈ 0.0117 µM); MIC [8]: 0.2 µg/mL (≈ 0.238 µM); MIC [9]: 0.2 µg/mL (≈ 0.238 µM); MIC (Sarcina lutea ATCC 9341): 0.2 µg/mL (≈ 0.238 µM); MIC [10]: 0.195 µg/mL (≈ 0.232 µM); MIC [11]: 0.08 µg/mL (≈ 0.0953 µM); MIC [12]: 0.04 µg/mL (≈ 0.0477 µM); MIC [13]: 0.2 µg/mL (≈ 0.238 µM); MIC [14]: 0.2 µg/mL (≈ 0.238 µM); ED50 (Plasmodium bergei): 2.5 mg/kg
5 | CC[C@@H](C(=O)O)[C@@H]1O[C@@H]([C@@H](C)[C@H](O)[C@H](C)C(=O)[C@H](CC)[C@H]2O[C@]3(C=C[C@@H](O)[C@]4(CC[C@@](C)([C@H]5CC[C@](O)(CC)[C@H](C)O5)O4)O3)[C@H](C)C[C@@H]2C)[C@@H](C)C[C@@H]1C [Narasin] |  |  |  |  |  | 00.583 and 0.581 | 86% and 88% |  | 
